Experimental data taken from US20120301468A1, “ANTI-MN ANTIBODIES AND METHODS OF USING SAME” (BAYER HEALTHCARE LLC, priority 2005, published 2012).
pKd: −log10 of the molar value. Non-standard residues stand in square brackets, D forms with d. Residues, ends and D or L forms follow the SMILES beside them. *: point of attachment. Dolaproine = CO[C@@H]([C@@H]1CCCN1)[C@@H](C)C(=O)O; Dil = CC[C@H](C)[C@H](NC)[C@@H](CC(=O)O)OC; X1 = C[C@@H](N*)[C@@H](O)c1ccccc1; NMeV = CN[C@H](C(=O)O)C(C)C

Tests used:
[1] = system: HCT-15 multi-drug resistant (P-gp) CRC xenograft; test: HCT-15 multi-drug resistant xenograft model; type: in vivo, NCr nu/nu mice; conditions: HCT-15 MDR model
Experimental: To examine the effect of 3ee9/MMAE in a multi-drug resistance model, female NCr nu/nu mice were implanted subcutaneously (s.c.) with 5×10^6 HCT-15 cells. HCT-15 is a multi-drug resistant (MDR) line that over-expresses P-glycoprotein (P-gp). […] 3ee9/MMAE, Taxol, and Gemcitabine were administered when mice had established tumors with mean weight of ˜150 mg. Gemcitabine, a pyrimidine analog that is not a P-gp substrate was used as a positive control.

[2] = system: HT-29 human CRC xenograft; test: HT-29 subcutaneous xenograft model; type: in vivo, athymic NCr (nu/nu) mice; conditions: HT-29; for % Inhibition (1-T/D)*100 (Day 18) / Percent Regressions: Q4D × 3
Experimental: When tumors reached an average size of ˜120 mg (5 days), treatment was initiated. […] In addition, MMAE was assessed as a free drug at a dose of 0.1, 0.2 and 1 mg/kg. The 0.1 and 0.2 mg/Kg doses of MMAE represent equivalent amounts of this drug to those present on 5 and 10 mg/Kg 3ee9/MMAE respectively.
Anti-tumor effect of 3ee9/MMAE was also assessed in varying schedules, i.e., once a week dosing for total of two doses (Q7Dx2, FIG. 20) and a single dose at the time of staging (Q1Dx1, FIG. 21). In both schedules, 3ee9/MMAE was dosed at 0.625, 1.25, 2.5, 5 and 10 mg/kg.

Colo-205 CRC xenograft = test: Colo-205 subcutaneous xenograft model; conditions: Colo-205
Description: The in vivo anti-tumor effect of 3ee9/MMAE was examined in 6 different human xenograft tumor models. These models were established through subcutaneous implantation of human tumor cells into female athymic NCr (nu/nu) mice (Taconic, N.Y.). The human tumor xenograft models evaluated included the MaTu human mammary carcinoma model, the HT-29 and Colo-205 human colo-rectal carcinoma (CRC) models, PC3MM2 prostate carcinoma model, the HCT-15 multi-drug resistant (P-gp) CRC model, and the MiaPaCa2 human pancreatic model. PBS was used as a vehicle, and dosing solutions were prepared fresh daily. The dosing volume was 0.1 mL/10 g (10 mL/kg).
The length and width of each tumor were measured using an electronic caliper 2-3 times per week, and tumor weights (mg) were calculated based on the formula of [length (mm)×width (mm)^2]/2. All data, including daily observations, obtained throughout the course of the study were documented in Anti-tumor Data Acquisition System (ADAS). […] Tumor growth inhibition (TGI) was calculated as (1-T/C)×100, where T=final tumor weights from a treated group after the last dose, and C=final tumor weights from the control group after the last dose. In addition, anti-tumor efficacy was measured as the incidence of responses (or responders or regressions) defined as tumors with ≦50% of their initial size. A minimum duration of 7 days is required for a response to be considered durable.
The anti-tumor activity of 3ee9/MMAE was next evaluated against human prostate (PC-3 mm2) and CRC (Colo-205) tumor xenografts. Female NCr nu/nu mice were implanted subcutaneously (s.c.) either with 5×10^6 PC3 mm2 or Colo-205 cells. Treatment was initiated when tumors were of an average size of approximately 125-150 mg. The general health of mice was monitored and recorded daily. Tumor dimensions and body weights were recorded twice a week starting with the first day of treatment.
In the PC3 mm2 and Colo-205 studies, 3ee9/MMAE was administered intravenously (i.v.) once every 4th day for a total of 3 injections (Q4Dx3) at doses of 1, 3, 10 and 30 mg/kg and 1.25, 2.5, 5 and 10 mg/kg, respectively.
The feasibility of using 3ee9/MMAE in conjunction with other cancer chemotherapeutic agents was investigated. Xeloda® is used as first line treatment of patients with metastatic colorectal carcinoma. The activity and tolerability of combined therapy using 3ee9/MMAE and Xeloda® was evaluated. 3ee9/MMAE was administered i.v. on a Q4Dx3 schedule and at dose levels of 1.25, 2.5 and 10 mg/kg. Xeloda® was administered orally once daily for 9 days at dose levels of 250 and 500 mg/kg.

MN [3] = target: T1, MN (Homo sapiens, UniProt Q16790); test: Surface plasmon resonance (BIAcore) binding to MN protein; set-up: The MN protein represents the entire extra-cellular domain of the protein with a C-terminal histag for purification; His tag (C); made in house; host or cells: HKB-11 (mammalian cell line); conditions: read-out: kD for purified MN protein
Experimental: The binding interactions between MN protein and the antibodies of this invention were analyzed using surface plasmon resonance technology on a BIAcore 3000 instrument (BIAcore, Uppsala, Sweden). For the binding of full-length IgGs (1e4, 1aa1, and 3ee9), goat anti-human IgG Fc was covalently coupled to the CM5 biosensor chip at high density using a standard amine coupling kit (BIAcore, Uppsala, Sweden). A capture assay was then used to bind these IgG to the anti-human IgG Fc-immobilized surface, aiming for a 300 response unit BIAcore signal. […] After ligand binding, the flow rate was then increased to 25 μl/min and various concentrations of MN analyte (e.g., range of 50 nM to 1 nM) were flowed over the surface for 10 minutes such that the association phase could be monitored. […] The binding of Fabs to MN was similarly determined except that an anti-human-Fab IgG was immobilized onto the chip and used to capture the Fabs prior to the assessment of MN binding.
Binding interactions between HKB11-expressed human MN protein and human full-length anti-MN MAbs were analyzed using surface plasmon resonance technology on a BIAcore 3000 instrument (BIAcore, Uppsala, Sweden). […] After ligand binding, flow rate was increased to 25 ul/min and MN analyte (50 nM to 1 nM) was flowed over the surface for 10 min such that the association phase could be monitored. […]

MN [4] = target: T1, MN; test: Immunoprecipitation of biotinylated cell surface proteins; type: binding; set-up: incubated with cell lysates of MN+ (Pc3 mm2) and MN− (DLD-1) cell lines that had been selectively labeled with biotin; endogenous in cells; host or cells: PC-3 mm2 (MN+); DLD-1 as the MN- control; conditions: biotin-labeled lysates of MN+ (Pc3 mm2) and MN− (DLD-1) cell lines
Experimental: To further explore specificity, various candidate antibodies including the antibody portion of 3ee9/MMAE (3ee9) and the reference antibody G250 were incubated with cell lysates of MN+ (Pc3 mm2) and MN− (DLD-1) cell lines that had been selectively labeled with biotin. Complexes between the antibodies and cellular proteins were immuno-precipitated and the co-precipitated antigens visualized using immunoblots developed with enzyme-linked streptavidin.

For `Nc1ccn([C@@H]2O[C@H](CO)[C@@H](O)C2(F)F)c(=O)n1` [Gemcitabine], the anti-tumor activity ([1]; 120 mg/kg, i.p., QDx10) was “highly active”.

`CC[C@H](C)[C@@H]([C@@H](CC(=O)N1CCC[C@H]1[C@H](OC)[C@@H](C)C(=O)N[C@H](C)[C@@H](O)c1ccccc1)OC)N(C)C(=O)[C@@H](NC(=O)[C@@H](NC)C(C)C)C(C)C` [MMAE, Monomethylauristatin E, reference compound] (H-[NMeV]V[Dil][Dolaproine]-X1) was tested, and the “% Inhibition (1-T/D)*100 (Day 18)” value ([2]; 0.1 mg/kg) was 27%, the “Percent Regressions” value ([2]; 0.1 mg/kg) was 0% and the “% Inhibition (1-T/D)*100 (Day 18)” value ([2]; 0.2 mg/kg) was 60%. The “Percent Regressions” value ([2]; 0.2 mg/kg) was 0%, the “% Inhibition (1-T/D)*100 (Day 18)” value ([2]; 1 mg/kg) was “Toxic” and the tumor responses ([2]; free drug) was “did not induce any tumor responses”. For the same compound, the “effect in inhibiting growth” value ([2]; free drug 0.1 mg/kg) was “no significant effect”, the TGI ([2]; free drug 0.2 mg/kg) was 60% and the lethality ([2]; free drug 1 mg/kg) was 50%. The tolerability ([2]; free drug 1 mg/kg) was “considered toxic” and the tolerability ([2]; free drug 0.1 and 0.2 mg/kg) was “well tolerated with non-significant, minimal weight loss”.

With `CC(=O)O[C@H]1C(=O)[C@@]2(C)[C@H]([C@H](OC(=O)c3ccccc3)[C@]3(O)C[C@H](OC(=O)[C@H](O)[C@@H](NC(=O)c4ccccc4)c4ccccc4)C(C)=C1C3(C)C)[C@]1(OC(C)=O)CO[C@@H]1C[C@@H]2O` [Taxol®] the anti-tumor effect [1] was “failed to produce any significant anti-tumor effect”.

`CCCCCOC(=O)Nc1nc(=O)n([C@@H]2O[C@H](C)[C@@H](O)[C@H]2O)cc1F` [Xeloda, reference compound] was tested, and the “% Inhibition (T/C) (d 17)” value (Colo-205 CRC xenograft; 250 mg/kg/inj Q1D × 9 PO) was 78%, the “% Regressions” value (Colo-205 CRC xenograft; 250 mg/kg/inj Q1D × 9 PO) was 0% and the “% Weight Loss (d 17)” value (Colo-205 CRC xenograft; 250 mg/kg/inj Q1D × 9 PO) was −0.5%. The “% Inhibition (T/C) (d 17)” value (Colo-205 CRC xenograft; 500 mg/kg/inj Q1D × 9 PO) was 86.1%, the “% Regressions” value (Colo-205 CRC xenograft; 500 mg/kg/inj Q1D × 9 PO) was 0% and the “% Weight Loss (d 17)” value (Colo-205 CRC xenograft; 500 mg/kg/inj Q1D × 9 PO) was −5.6%. The TGI (Colo-205 CRC xenograft; alone 250 mg/kg orally once daily for 9 days) was 78%, the TGI (Colo-205 CRC xenograft; alone 500 mg/kg orally once daily for 9 days) was 86% and the animals showing regressions (Colo-205 CRC xenograft; both dose groups (250 and 500 mg/kg)) was “zero”.

For “G250: MN antibody G250, a humanized IgG1 antibody, (Wilex), used as a reference [reference compound]”, the pKd (MN [3]) was 8.28 and the “co-immunoprecipitated proteins (specificity)” value (MN [4]) was “selectively bound and co-immunoprecipitated with a single band of the same size as MN”.
